Experimental data taken from publication PMC8041284, “Tunable Methacrylamides for Covalent Ligand Directed Release Chemistry” (Journal of the American Chemical Society, 2021).
Where two headings read alike, the source gives them in different places.

Biological target: BTK (Homo sapiens, UniProt Q06187)
Experiment: biochemical
[1] = read-out: BTK inhibition (%), 0.75 uM BTK, […] probe 3l, 15 min preincubation

Chain of BTK (Q06187 402-655 limits assumed): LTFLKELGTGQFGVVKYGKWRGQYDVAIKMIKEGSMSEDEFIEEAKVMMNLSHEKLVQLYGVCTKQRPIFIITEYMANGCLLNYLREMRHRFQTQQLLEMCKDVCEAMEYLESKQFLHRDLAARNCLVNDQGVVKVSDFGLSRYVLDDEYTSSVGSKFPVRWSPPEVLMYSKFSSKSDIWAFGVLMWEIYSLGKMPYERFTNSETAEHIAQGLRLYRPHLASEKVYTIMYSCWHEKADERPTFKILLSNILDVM

SMILES | inhibition at 10 µM [1] | inhibition at 10 µM (read-out: BTK inhibition (%))
C[C@@H]1O[C@@H](OC[C@H]2O[C@@H](Oc3cc(O)c4c(c3)O[C@H](c3ccc(O)cc3)CC4=O)[C@H](O)[C@@H](O)[C@@H]2O)[C@H](O)[C@H](O)[C@H]1O [PCM-0216493] | 10.8% | –
Cc1ccc(S(=O)(=O)n2c(N)nc3ccccc32)cc1 [PCM-0095508] | -3.1% | –
OCCOc1ccc(/C(=C(/CCCl)c2ccccc2)c2ccccc2)cc1 [PCM-0214796] | 73.9% | –
CC(C)n1ncnc1-c1cn2c(n1)-c1ccc(O[C@@H](C)C(N)=O)cc1OCC2 [PCM-0215832] | -8.3% | –
Cc1ccc(C(=O)N(CCCN)[C@@H](c2oc3cc(Cl)ccc3c(=O)c2Cc2ccccc2)C(C)C)cc1 [PCM-0095226] | -2.3% | –
O=C(Nc1ccccc1Br)N[C@@H]1CCN(c2ccc(C(F)(F)F)cn2)C1 [PCM-0095337] | -17.1% | –
C[N+]12CCc3cc4c(cc3C1(O)Cc1ccc3c(c1C2)OCO3)OCO4 (stereo not drawn) [PCM-0216462] | -18.5% | –
C[C@H](C(=O)O)c1ccc(-c2ccccc2)c(F)c1 [PCM-0095117] | -2.1% | –
CC(C)CCC[C@@H](C)[C@H]1CC[C@H]2C3=CC=C4C[C@@H](O)CC[C@]4(C)[C@H]3CC[C@]12C [PCM-0216561] | 18.5% | –
CNC1CCCN(c2c(F)cc3c(=O)c(C(=O)O)cn(C4CC4)c3c2OC)C1 (stereo not drawn) [PCM-0095230] | -5.4% | –
c1cnc2cc3c(cc2n1)[C@@H]1CNC[C@H]3C1 [PCM-0064570] | -31.5% | –
CCCCCCCCCC=O [PCM-0216148] | -10% | –
NC(N)=NC(N)=NCCc1ccccc1 [PCM-0085798] | 4.1% | –
COc1ccc(C(=O)O)c(O)c1 [PCM-0215974] | 2.3% | –
CC(=O)O[C@@H]1[C@H]2[C@@H](OC(=O)Cc3ccccc3)[C@@H](C)C[C@]2(OC(C)=O)C(=O)/C(C)=C/[C@@H]2[C@H](CC[C@]13CO3)C2(C)C [PCM-0216313] | – | -27.8%
Cc1[nH]c2ccccc2c1C1=C(NCCc2ccc(F)cc2)C(=O)N(C)C1=O [PCM-0215349] | 51.7% | –
CNC[C@H](O)[C@@H](O)[C@H](O)[C@H](O)CO [PCM-0086373] | -10.1% | –
CC1CC(=O)c2c(ccc3c2C(=O)c2cccc(O)c2C3=O)C1 (stereo not drawn) [PCM-0215599] | -3.1% | –
CCOC(=O)C1=C(COCCN)NC(C)=C(C(=O)OC)[C@@H]1c1ccccc1Cl [PCM-0214889] | -11.7% | –
CN1C(=O)[C@@H](NC(=O)c2n[nH]c(Cc3ccccc3)n2)COc2ccccc21 [PCM-0215843] | 6.2% | –
CC1(C)O[C@@H]2[C@@H](CO[C@@]3(COS(N)(=O)=O)OC(C)(C)O[C@@H]23)O1 [PCM-0086260] | -15.6% | –
O=c1[nH]c2ccccc2n1CCN1CCN(c2cccc(C(F)(F)F)c2)CC1 [PCM-0214925] | -34.2% | –
CCOc1cc(C(=O)N2CCC(N3CCN(C)CC3)CC2)ccc1Nc1ncc2c(n1)N(C1CCCC1)c1ccccc1C(=O)N2C [PCM-0213331] | 0% | –
COc1ccc(CCO[C@@H]2O[C@H](CO[C@@H]3OC[C@H](O)[C@H](O)[C@H]3O)[C@@H](OC(=O)/C=C/c3ccc(O)c(OC)c3)[C@H](O[C@@H]3O[C@@H](C)[C@H](O)[C@@H](O)[C@H]3O)[C@H]2O)cc1O [PCM-0216311] | 3.9% | –
CCS(=O)(=O)Nc1ccc2[nH]c(O)c(C(=Nc3ccc(CN4CCCCC4)cc3)c3ccccc3)c2c1 [PCM-0095089] | 82.1% | –
CC(C)(O)CC(=O)NCCn1ccc2ncnc(Nc3ccc(Oc4cccc(C(F)(F)F)c4)c(Cl)c3)c21 [PCM-0095364] | 73.8% | –
CN(C)CC/C=C1/c2ccccc2COc2ccc(CC(=O)O)cc21 [PCM-0086250] | 8.3% | –
C[C@H](N[C@@H](CCc1ccccc1)C(=O)O)C(=O)N1CCC[C@H]1C(=O)O [PCM-0065638] | 3.1% | –
NC(=O)c1ccc(N(C(N)=O)c2c(F)cccc2F)nc1-c1ccc(F)cc1F [PCM-0095567] | -32.4% | –
Fc1ccc2[nH]ccc2c1-c1nc(N2CCOCC2)c2sc(CN3CCN(CC4CC4)CC3)cc2n1 [PCM-0215422] | -18.6% | –
